Where a name gives a salt, the structure may show the parent alone.
These compounds were tested against recombinant human cGAS (Homo sapiens (Human), UniProt Q8N884) (assay: In vitro inhibition assay of cGAS activity (cGAMP production, RapidFire mass spectrometry)). Details: 10 nM recombinant human cGAS, 60 nM 75-bp dsDNA, ATP, GTP, room temperature 3 hours, read-out: IC50 (μM), In vitro inhibition assay for Compounds 1-94.
Assay type: biochemical
Experimental: Expression and Purification of Recombinant cGAS Protein: Insert cDNA encoding full-length of human cGAS into a modified bacterial expression vector containing an in-frame His6-tag. Induce the E. coli strain BL21(DE3) harboring the plasmid with 1 mM IPTG (Isopropyl β-D-1-thiogalactopyranoside) at 18° C. overnight. Purify the His6-tagged cGAS protein over HISpur Ni-NTA resin in the presence of benzonase and RNase followed by Superdex 200 size exclusion chromatography with storage buffer (50 mM Tris-HCl pH 7.5, 300 mM NaCl, 1 mM DTT, 10% glycerol).
In vitro inhibition assay of cGAS activity: Add a 5 μL mixture containing 10 mM Tris-Cl pH 7.5, 50 mM NaCl, 5 mM MgCl2, 1 mM DTT, 0.01% Triton X-100, 60 nM 75-bp dsDNA, […], 50 μM GTP, 10 nM of recombinant human cGAS, and serial dilutions of a test compound in DMSO to a 384-well plate and incubate at room temperature for 3 hours. Quench the reaction by the addition of 100 μL of stop solution containing 0.1% formic acid and 0.1 μM internal standard (3′3′-difluoro cGAMP). Measure the amount of cGAMP produced by RapidFire 365 mass spectrometry and evaluate inhibitory effect of a compound by plotting percent specific inhibition of cGAMP production against log concentration of the test compound. Calculate IC50 values using a 4-parameter non-linear logistic equation (y=(S0+((SInf−S0)/(1+((qAC50/x)^nHill))))).

Chain of recombinant human cGAS (Q8N884 whole entry): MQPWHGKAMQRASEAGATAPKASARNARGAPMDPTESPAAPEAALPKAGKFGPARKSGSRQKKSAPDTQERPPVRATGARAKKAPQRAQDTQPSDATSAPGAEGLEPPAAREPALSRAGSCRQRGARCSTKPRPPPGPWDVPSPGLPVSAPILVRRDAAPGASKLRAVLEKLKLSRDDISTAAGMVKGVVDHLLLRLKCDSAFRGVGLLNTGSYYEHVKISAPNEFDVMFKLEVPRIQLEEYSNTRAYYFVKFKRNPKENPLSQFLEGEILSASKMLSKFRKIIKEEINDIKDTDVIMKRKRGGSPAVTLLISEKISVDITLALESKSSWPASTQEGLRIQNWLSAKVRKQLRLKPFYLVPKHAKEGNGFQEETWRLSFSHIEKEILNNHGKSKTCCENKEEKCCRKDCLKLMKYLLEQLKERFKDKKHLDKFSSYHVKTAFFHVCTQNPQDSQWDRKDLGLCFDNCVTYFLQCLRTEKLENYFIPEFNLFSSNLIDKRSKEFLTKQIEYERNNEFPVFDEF

IC50 | Compound
0.0427 µM | O=C(C1COCCO1)N1CCn2c(c(-c3cn[nH]c3)c3ccc(Cl)c(Cl)c32)C1 (stereo not drawn) [Example 51, [6,7-dichloro-10-(1H-pyrazol-4-yl)-3,4-dihydro-1H-pyrazino[1,2-a]indol-2-yl]-(1,4-dioxan-2-yl)methanone]
0.027 µM | Cn1ncnc1COCC(=O)N1CCn2c(c(-c3cn[nH]c3)c3ccc(Cl)c(Cl)c32)C1 [Example 46, 1-[6,7-dichloro-10-(1H-pyrazol-4-yl)-3,4-dihydro-1H-pyrazino[1,2-a]indol-2-yl]-2-[(2-methyl-1,2,4-triazol-3-yl)methoxy]ethanone]
0.0614 µM | Cc1c(-c2cn[nH]c2)c2ccc(Cl)c(Cl)c2n1C [Example 3, 6,7-Dichloro-1,2-dimethyl-3-(1H-pyrazol-4-yl)indole]
0.029 µM | CN1CCn2c(c(-c3cn[nH]c3)c3c(NCCO)cc(Cl)c(Cl)c32)C1=O [Example 87, 6,7-Dichloro-9-((2-hydroxyethyl)amino)-2-methyl-10-(1H-pyrazol-4-yl)-3,4-dihydropyrazino[1,2-a]indol-1(2H)-one]
0.0349 µM | CC(=O)Nc1cc(Cl)c(Cl)c2[nH]cc(-c3cn[nH]c3)c12 [Example 66, N-[6,7-Dichloro-3-(1H-pyrazol-4-yl)-1H-indol-4-yl]acetamide]
0.034 µM | Clc1c(Br)ccc2c(-c3cn[nH]c3)c[nH]c12 [Example 30, 6-bromo-7-chloro-3-(1H-pyrazol-4-yl)-1H-indole]
0.0855 µM | CC(C#N)Oc1cc(Cl)c(Cl)c2[nH]cc(-c3cn[nH]c3)c12 (stereo not drawn) [Example 60, 2-[[6,7-Dichloro-3-(1H-pyrazol-4-yl)-1H-indol-4-yl]oxy]propanenitrile]
0.0405 µM | CCOc1cc(Cl)c(Cl)c2c1c(-c1cn[nH]c1)c1n2CCN(C(=O)CO)C1 [Example 91, 1-[6,7-Dichloro-9-ethoxy-10-(1H-pyrazol-4-yl)-3,4-dihydro-1H-pyrazino[1,2-a]indol-2-yl]-2-hydroxy-ethanone]
0.0818 µM | O=C1NC(CO)Cn2c1c(-c1cn[nH]c1)c1ccc(Cl)c(Cl)c12 (stereo not drawn) [Example 80, 6,7-Dichloro-3-(hydroxymethyl)-10-(1H-pyrazol-4-yl)-3,4-dihydro-2H-pyrazino[1,2-a] indol-1-one]
0.0151 µM | OCCNc1cc(Cl)c(Cl)c2[nH]cc(-c3cn[nH]c3)c12 [Example 62, 2-[[6,7-Dichloro-3-(1H-pyrazol-4-yl)-1H-indol-4-yl]amino]ethanol]
0.0452 µM | O=C1Cn2c(c(-c3cn[nH]c3)c3ccc(Cl)c(Cl)c32)CN1CCO [Example 76, 6,7-Dichloro-2-(2-hydroxyethyl)-10-(1H-pyrazol-4-yl)-1,2-dihydropyrazino[1,2-a]indol-3(4H)-one]
0.0223 µM | CN1CCOCC1CC(=O)N1CCn2c(c(-c3cn[nH]c3)c3ccc(Cl)c(Cl)c32)C1 (stereo not drawn) [Example 81, 1-[6,7-Dichloro-10-(1H-pyrazol-4-yl)-3,4-dihydro-1H-pyrazino[1,2-a]indol-2-yl]-2-(4-methylmorpholin-3-yl)ethanone]
0.0525 µM | NS(=O)(=O)N1CCn2c(c(-c3cn[nH]c3)c3ccc(Cl)c(Cl)c32)C1 [Example 40, 6,7-dichloro-10-(1H-pyrazol-4-yl)-3,4-dihydro-1H-pyrazino[1,2-a]indole-2-sulfonamide]
0.0847 µM | O=C1CCCN1C1CCc2c(-c3cn[nH]c3)c3ccc(Cl)c(Cl)c3n2C1 (stereo not drawn) [Example 74, 1-[3,4-Dichloro-10-(1H-pyrazol-4-yl)-6,7,8,9-tetrahydropyrido[1,2-a]indol-7-yl]pyrrolidin-2-one]
0.0486 µM | NC(=O)CNc1cc(Cl)c(Cl)c2[nH]cc(-c3cn[nH]c3)c12 [Example 64, 2-[[6,7-Dichloro-3-(1H-pyrazol-4-yl)-1H-indol-4-yl]amino] acetamide]
0.0411 µM | O=C1c2c(-c3cn[nH]c3)c3ccc(Cl)c(Cl)c3n2CCN1CCO [Example 32, 6,7-Dichloro-2-(2-hydroxyethyl)-10-(1H-pyrazol-4-yl)-3,4-dihydropyrazino[1,2-a]indol-1-one]
0.0273 µM | COCC(=O)N1CCn2c(c(-c3cn[nH]c3)c3ccc(Cl)c(Cl)c32)C1 [Example 42, 1-[6,7-dichloro-10-(1H-pyrazol-4-yl)-3,4-dihydro-1H-pyrazino[1,2-a]indol-2-yl]-2-methoxy-ethanone]
0.0224 µM | Nc1nnc(-c2[nH]c3c(Cl)c(Cl)ccc3c2-c2cn[nH]c2)o1 [Example 94, 5-[6,7-Dichloro-3-(1H-pyrazol-4-yl)-1H-indol-2-yl]-1,3,4-oxadiazol-2-amine]
0.0863 µM | Clc1ccc2c(-c3cn[nH]c3)c[nH]c2c1Cl [Example 1, 6,7-Dichloro-3-(1H-pyrazol-4-yl)-1H-indole]
0.0333 µM | COCc1nnc(CN2CCn3c(c(-c4cn[nH]c4)c4ccc(Cl)c(Cl)c43)C2)o1 [Example 47, 2-[[6,7-dichloro-10-(1H-pyrazol-4-yl)-3,4-dihydro-1H-pyrazino[1,2-a]indol-2-yl]methyl]-5-(methoxymethyl)-1,3,4-oxadiazole formic acid salt]
0.0449 µM | Clc1ccc2c(-c3cn[nH]c3)c3n(c2c1Cl)CCC(c1nn[nH]n1)C3 (stereo not drawn) [Example 69, 3,4-Dichloro-10-(1H-pyrazol-4-yl)-8-(1H-tetrazol-5-yl)-6,7,8,9-tetrahydropyrido[1,2-a]indole]
0.0423 µM | Cc1nnc(NCc2[nH]c3c(Cl)c(Cl)ccc3c2-c2cn[nH]c2)s1 [Example 11, N-[[6,7-Dichloro-3-(1H-pyrazol-4-yl)-1H-indol-2-yl]methyl]-5-methyl-1,3,4-thiadiazol-2-amine]
0.0229 µM | CC(=O)NC1CCn2c1c(-c1cn[nH]c1)c1ccc(Cl)c(Cl)c12 (single isomer, unassigned) [Example 26, N-(5,6-Dichloro-9-(1H-pyrazol-4-yl)-2,3-dihydro-1H-pyrrolo[1,2-a]indol-1-yl)acetamide]

Same assay, conditions: 10 nM recombinant human cGAS, 60 nM 75-bp dsDNA, ATP, GTP, room temperature 3 hours, read-out: IC50 (μM), In vitro inhibition assay for Compounds 95-348

IC50 | Compound
0.0613 µM | CN1C(=O)SC(CC(=O)N2CCn3c(c(-c4cn[nH]c4)c4ccc(Cl)c(Cl)c43)C2)C1=O (stereo not drawn) [Example 323, 5-(2-(6,7-Dichloro-10-(1H-pyrazol-4-yl)-3,4-dihydropyrazino[1,2-a]indol-2(1H)-yl)-2-oxoethyl)-3-methylthiazolidine-2,4-dione]
0.0636 µM | O=C(CCn1ccnc1)N1CCn2c(c(-c3cn[nH]c3)c3ccc(Cl)c(Cl)c32)C1 [Example 328, 1-(6,7-Dichloro-10-(1H-pyrazol-4-yl)-3,4-dihydropyrazino[1,2-a]indol-2(1H)-yl)-3-(1H-imidazol-1-yl)propan-1-one]
0.0918 µM | COCC(=O)NC(C)C(=O)N1CCn2c(c(-c3cn[nH]c3)c3ccc(Cl)c(Cl)c32)C1 (stereo not drawn) [Example 333, N-(1-(6,7-Dichloro-10-(1H-pyrazol-4-yl)-3,4-dihydropyrazino[1,2-a]indol-2(1H)-yl)-1-oxopropan-2-yl)-2-methoxyacetamide]
0.0491 µM | O=C1NC(C(=O)N2CCn3c(c(-c4cn[nH]c4)c4ccc(Cl)c(Cl)c43)C2)CCO1 (stereo not drawn) [Example 314, 4-(6,7-Dichloro-10-(1H-pyrazol-4-yl)-1,2,3,4-tetrahydropyrazino[1,2-a]indole-2-carbonyl)-1,3-oxazinan-2-one]
0.0524 µM | COCC(=O)N(C)CC(=O)N1CCn2c(c(-c3cn[nH]c3)c3ccc(Cl)c(Cl)c32)C1 [Example 318, N-(2-(6,7-Dichloro-10-(1H-pyrazol-4-yl)-3,4-dihydropyrazino[1,2-a]indol-2(1H)-yl)-2-oxoethyl)-2-methoxy-N-methylacetamide]
0.0561 µM | Cn1ncnc1CCC(=O)N1CCn2c(c(-c3cn[nH]c3)c3ccc(Cl)c(Cl)c32)C1 [Example 110, 1-[6,7-Dichloro-10-(1H-pyrazol-4-yl)-3,4-dihydro-1H-pyrazino[1,2-a]indol-2-yl]-3-(2-methyl-1,2,4-triazol-3-yl)propan-1-one]
0.0801 µM | CN(C)C1(CC(=O)N2CCn3c(c(-c4cn[nH]c4)c4ccc(Cl)c(Cl)c43)C2)COC1 [Example 330, 1-(6,7-Dichloro-10-(1H-pyrazol-4-yl)-3,4-dihydropyrazino[1,2-a]indol-2(1H)-yl)-2-(3-(dimethylamino)oxetan-3-yl)ethan-1-one]
0.0489 µM | CN1CCN(CC(=O)N2CCn3c(c(-c4cn[nH]c4)c4ccc(Cl)c(Cl)c43)C2)C1=O [Example 313, 1-(2-(6,7-Dichloro-10-(1H-pyrazol-4-yl)-3,4-dihydropyrazino[1,2-a]indol-2(1H)-yl)-2-oxoethyl)-3-methylimidazolidin-2-one]
0.0698 µM | CC(=O)N1CCOCC1C(=O)N1CCn2c(c(-c3cn[nH]c3)c3ccc(Cl)c(Cl)c32)C1 (stereo not drawn) [Example 109, 1-(3-(6,7-Dichloro-10-(1H-pyrazol-4-yl)-1,2,3,4-tetrahydropyrazino[1,2-a]indole-2-carbonyl)morpholino)ethan-1-one]
0.0626 µM | O=C(CCc1ncc(F)cn1)N1CCn2c(c(-c3cn[nH]c3)c3ccc(Cl)c(Cl)c32)C1 [Example 325, 1-(6,7-Dichloro-10-(1H-pyrazol-4-yl)-3,4-dihydropyrazino[1,2-a]indol-2(1H)-yl)-3-(5-fluoropyrimidin-2-yl)propan-1-one]
